Assay results published in the NIST ThermoML archive (doi:10.1016/j.tca.2015.01.012).
Numbers after ± are expanded uncertainties.

Settings: 101.33 kPa, Crystal; for molar entropy: Small (less than 1 g) adiabatic calorimetry; for mass density: X-ray diffraction

O=C(O)c1cccnc1 [3-carboxylpyridine]
Settings | mass density [kg/m3] | molar entropy [J/K/mol]
1 K | – | 0.0005
2 K | – | 0.004
3 K | – | 0.0136 ± 0.024
4 K | – | 0.0323 ± 0.024
5 K | – | 0.063 ± 0.025
6 K | – | 0.1089 ± 0.025
7 K | – | 0.1788 ± 0.027
8 K | – | 0.2634 ± 0.028
9 K | – | 0.3747 ± 0.03
10 K | – | 0.5086 ± 0.034
15 K | – | 1.592 ± 0.066
20 K | – | 3.297 ± 0.12
25 K | – | 5.543 ± 0.18
30 K | – | 8.212 ± 0.29
35 K | – | 11.2 ± 0.37
40 K | – | 14.39 ± 0.47
45 K | – | 17.7 ± 0.33
50 K | – | 21.08 ± 0.38
60 K | – | 27.91 ± 0.49
70 K | – | 34.69 ± 0.6
80 K | – | 41.32 ± 0.7
90 K | – | 47.75 ± 0.5
100 K | – | 53.98 ± 0.55
110 K | – | 60.02 ± 0.59
120 K | – | 65.91 ± 0.63
130 K | – | 71.64 ± 0.67
140 K | – | 77.24 ± 0.71
150 K | 1481 ± 6 | 82.72 ± 0.75
160 K | – | 88.1 ± 0.79
170 K | – | 93.38 ± 0.83
175 K | 1477 ± 6 | –
180 K | – | 98.6 ± 0.86
190 K | – | 103.7 ± 0.9
200 K | 1471 ± 6 | 108.9 ± 0.9
210 K | – | 113.9 ± 1
220 K | – | 119 ± 1
225 K | 1465 ± 6 | –
230 K | – | 124 ± 1
240 K | – | 129 ± 1.1
250 K | 1460 ± 6 | 134.1 ± 1.1
260 K | – | 139.1 ± 1.2
270 K | – | 144.2 ± 1.2
273.15 K | – | 145.7 ± 1.2
275 K | 1454 ± 6 | –
280 K | – | 149.2 ± 1.2
290 K | – | 154.3 ± 1.3
298.15 K | – | 158.4 ± 1.3
300 K | 1444 ± 6 | 159.3 ± 1.3
310 K | – | 164.4 ± 1.3
320 K | – | 169.5 ± 1.4
325 K | 1436 ± 6 | –
330 K | – | 174.6 ± 1.4
340 K | – | 179.7 ± 1.5
346 K | – | 182.8 ± 1.5
350 K | 1430 ± 6 | –
375 K | 1422 ± 6 | –
400 K | 1413 ± 6 | –
425 K | 1406 ± 6 | –
